Experimental data published in patent US9994515B2, “Aryl naphthyl methanone oxime(s) and process for preparation thereof” (Council of Scientific & Industrial Research, priority 2013, dated 2018).
Structures can show the parent of a compound that is named as a salt.

Experiments:
[1] = tested on: K562; experiment: MTT cytotoxicity assay in K562 cells; assay type: cell-based; conditions: Table 1, MTT assay after 48 h treatment
[2] = tested on: NIH3T3; experiment: MTT cytotoxicity assay in NIH3T3 fibroblasts; assay type: cell-based, mouse; conditions: Table 1, MTT assay after 48 h treatment
Description: To consider a molecule as a candidate compound in cancer drug therapy, the test compound must have specific cytotoxicity towards the cancer cells without affecting normal cell growth. Therefore, all active compounds were assessed for toxicity in non-cancer cell-lines: mouse fibroblast cell line (NIH3T3) and monkey kidney epithelial cells (Vero). […] Therefore, based on safety index ([…]), 5d [Centans; based on IUPAC name prefixed with Central Drug Research Institute's signature (Cent)] was selected as a lead compound.

[3] = tested on: HL60; experiment: MTT cytotoxicity assay in HL-60 cells; assay type: cell-based; conditions: Table 1, MTT assay after 48 h treatment
[4] = tested on: Ishikawa; experiment: MTT assay in Ishikawa endometrial adenocarcinoma cells; assay type: cell-based; conditions: Table 6, 48 h, 10 point dose response
[5] = tested on: MCF-7; experiment: MTT assay in MCF-7 breast tumor cells; assay type: cell-based; conditions: Table 6, 48 h, 10 point dose response
[6] = tested on: DU-145; experiment: MTT assay in DU-145 prostate tumor cells; assay type: cell-based; conditions: Table 6, 48 h, 10 point dose response
[7] = tested on: MDA-MB231; experiment: MTT assay in MDA-MB-231 breast tumor cells; assay type: cell-based; conditions: Table 6, 48 h, 10 point dose response

Compound	melting point [°C]	IC50 ([1]; Homo sapiens, K562, 48 h) [µM]	IC50 ([2]; Mus musculus, NIH3T3, 48 h) [µM]	IC50 ([3]; Homo sapiens, HL-60, 48 h) [µM]	also measured
COc1ccc(/C(=N/OCCN2CCOCC2)c2cccc3ccccc23)cc1 [Compound 6h, (4-methoxyphenyl)(naphthalen-1-yl)methanone O-2-morpholinoethyl oxime]		19	26	> 50	
CSc1ccc(/C(=N/OCCCCNCCc2ccccc2)c2cccc3ccccc23)cc1 [Compound 8c, (4-(methylthio)phenyl)(naphthalen-1-yl)methanone O-4-(phenethylamino)butyl oxime]		> 30	> 50	> 50	
CSc1ccc(/C(=N/OC(C)CN(C)C)c2cccc3ccccc23)cc1 (stereo not drawn) [Compound 5g, (4-(methylthio)phenyl)(naphthalen-1-yl)methanone O-1-(dimethylamino)propan-2-yl oxime oxalate]		> 50	> 50	> 50	
COc1ccc(/C(=N/O)c2cccc3ccccc23)cc1 [Compound 4b, (4-methoxyphenyl)(naphthalen-1-yl)methanone oxime]	132	> 50	> 50	> 50	
CSc1ccc(/C(=N/OCCN2CCCCC2)c2cccc3ccccc23)cc1 (as salt: oxalate) [Compound 5a, (4-(methylthio)phenyl)(naphthalen-1-yl)methanone O-2-(piperidin-1-yl)ethyl oxime oxalate]	155				
CSc1ccc(/C(=N/OC(C)CN(C)C)c2cccc3ccccc23)cc1 (stereo not drawn) (as salt: oxalate) [Compound 5g, (4-(methylthio)phenyl)(naphthalen-1-yl)methanone O-1-(dimethylamino)propan-2-yl oxime oxalate]	101				
4-hydroxy-tamoxifen [OH-TAM, reference compound]					IC50 [4]: 20 µM; IC50 [5]: 8.8 µM; IC50 [6]: 10 µM; IC50 [7]: 8 µM
CCCCN(C)CCCO/N=C(/c1ccc(SC)cc1)c1cccc2ccccc12 [Compound 7d, (4-(methylthio)phenyl)(naphthalen-1-yl)methanone O-3-(butyl(methyl)amino)propyl oxime]		> 50	> 50	13	
COc1ccc(/C(=N/OCCN2CCCCCC2)c2cccc3ccccc23)cc1 [Compound 6g, (4-methoxyphenyl)(naphthalen-1-yl)methanone O-2-(azepan-1-yl)ethyl oxime oxalate]		6.66	16	> 50	
CCOC(=O)CO/N=C(/c1ccc(SC)cc1)c1cccc2ccccc12 [Compound 5p, Ethyl 2-((4-(methylthio)phenyl) (naphthalen-1-yl)methyleneaminooxy) acetate]		> 50	> 50	15	
CCN(CC)CCO/N=C(/c1ccc(SC)cc1)c1cccc2ccccc12 [Compound 5l, (4-(methylthio)phenyl)(naphthalen-1-yl)methanone O-2-(diethylamino)ethyl oxime]					IC50 [1]: > 50 µM; IC50 [2]: > 50 µM; IC50 [3]: > 50 µM
CSc1ccc(/C(=N/OCCN2CCCCCC2)c2cccc3ccccc23)cc1 [Compound 5h, (4-(methylthio)phenyl)(naphthalen-1-yl)methanone O-2-(azepan-1-yl)ethyl oxime oxalate]		> 50	> 50	> 50	
CSc1ccc(/C(=N/OCCCN(C)C)c2cccc3ccccc23)cc1 (as salt: oxalate) [Compound 5m, (4-(methylthio)phenyl)(naphthalen-1-yl)methanone O-3-(dimethylamino)propyl oxime oxalate]	110				
CSc1ccc(/C(=N/OCCN(C(C)C)C(C)C)c2cccc3ccccc23)cc1 [Compound 5e, (4-(methylthio)phenyl)(naphthalen-1-yl)methanone O-2-(diisopropylamino)ethyl oxime]		7	16	14	
CCN(CCCCO/N=C(/c1ccc(SC)cc1)c1cccc2ccccc12)Cc1ccccc1 [Compound 8d, (4-(methylthio)phenyl)(naphthalen-1-yl) methanone O-4-(benzyl(ethyl)amino)butyl oxime]		16.3	> 50	> 50	
CSc1ccc(/C(=N/OCCN2CCCC2)c2cccc3ccccc23)cc1 (as salt: oxalate) [Compound 5b, (4-(methylthio)phenyl)(naphthalen-1-yl)methanone O-2-(pyrrolidin-1-yl)ethyl oxime oxalate]	153				
CCN(CC)CCO/N=C(/c1ccc(SC)cc1)c1cccc2ccccc12 [Compound 5k, (4-(methylthio)phenyl)(naphthalen-1-yl)methanone O-2-(diethylamino)ethyl oxime tartrate]					IC50 ([1]; tartrate): > 50 µM; IC50 ([2]; tartrate): > 50 µM; IC50 ([3]; tartrate): > 50 µM
CSc1ccc(/C(=N/OCCN2CCCCCC2)c2cccc3ccccc23)cc1 (as salt: oxalate) [Compound 5h, (4-(methylthio)phenyl)(naphthalen-1-yl)methanone O-2-(azepan-1-yl)ethyl oxime oxalate]	145				
COc1ccc(/C(=N/OC(C)CN(C)C)c2cccc3ccccc23)cc1 (stereo not drawn) [Compound 6f, (4-methoxyphenyl)(naphthalen-1-yl)methanone O-1-(dimethylamino)propan-2-yl oxime oxalate]		> 50	> 50	> 50	
CSc1ccc(/C(=N/OCCN(C)C)c2cccc3ccccc23)cc1 (as salt: oxalate) [Compound 5c, (4-(methylthio)phenyl)(naphthalen-1-yl)methanone O-2-(dimethylamino)ethyl oxime oxalate]	105				
CCN(CC)CCO/N=C(/c1ccc(SC)cc1)c1cccc2ccccc12 [Compound 5i, (4-(methylthio)phenyl)(naphthalen-1-yl)methanone O-2-(diethylamino)ethyl oxime citrate]					IC50 ([1]; citrate): > 30 µM; IC50 ([2]; citrate): 40 µM; IC50 ([3]; citrate): > 50 µM
CCN(CC)C(=O)CO/N=C(/c1ccc(SC)cc1)c1cccc2ccccc12 [Compound 5q, N,N-diethyl-2-((4-(methylthio)phenyl) (naphthalen-1-yl)methyleneaminooxy)acetamide]		> 50	> 50	> 50	

Second part, led by results:

melting point [°C]	Compound	IC50 ([1]; Homo sapiens, K562, 48 h) [µM]	IC50 ([2]; Mus musculus, NIH3T3, 48 h) [µM]	IC50 ([3]; Homo sapiens, HL-60, 48 h) [µM]	also measured
141	COc1ccc(/C(=N/OCCN(C)C)c2cccc3ccccc23)cc1 (as salt: oxalate) [Compound 6c, (4-methoxyphenyl)(naphthalen-1-yl)methanone O-2-(dimethylamino)ethyl oxime oxalate]				
137	CSc1ccc(/C(=N/OCCCN2CCCCC2)c2cccc3ccccc23)cc1 (as salt: oxalate) [Compound 7a, (4-(methylthio)phenyl)(naphthalen-1-yl)methanone O-3-(piperidin-1-yl)propyl oxime oxalate]				
171	COc1ccc(/C(=N/OCCN2CCCCC2)c2cccc3ccccc23)cc1 (as salt: oxalate) [Compound 6a, (4-methoxyphenyl)(naphthalen-1-yl)methanone O-2-(piperidin-1-yl)ethyl oxime oxalate]				
155	COc1ccc(/C(=N/OCCCN(C)C)c2cccc3ccccc23)cc1 (as salt: oxalate) [Compound 6i, (4-methoxyphenyl)(naphthalen-1-yl)methanone O-3-(dimethylamino)propyl oxime oxalate]				
122	COc1ccc(/C(=N/OCCN2CCCCCC2)c2cccc3ccccc23)cc1 (as salt: oxalate) [Compound 6g, (4-methoxyphenyl)(naphthalen-1-yl)methanone O-2-(azepan-1-yl)ethyl oxime oxalate]				
137	CCN(CC)CCO/N=C(/c1ccc(OC)cc1)c1cccc2ccccc12 (as salt: oxalate) [Compound 6d, (4-methoxyphenyl)(naphthalen-1-yl)methanone O-2-(diethylamino)ethyl oxime oxalate]				
158	COc1ccc(/C(=N/OCCN2CCCC2)c2cccc3ccccc23)cc1 (as salt: oxalate) [Compound 6b, (4-methoxyphenyl)(naphthalen-1-yl)methanone O-2-(pyrrolidin-1-yl)ethyl oxime oxalate]				
145	CSc1ccc(/C(=N/OCCCN2CCC(C)CC2)c2cccc3ccccc23)cc1 (as salt: oxalate) [Compound 7c, (4-(methylthio)phenyl)(naphthalen-1-yl)methanone O-3-(4-methylpiperidin-1-yl)propyl oxime oxalate]				
105	COc1ccc(/C(=N/OC(C)CN(C)C)c2cccc3ccccc23)cc1 (stereo not drawn) (as salt: oxalate) [Compound 6f, (4-methoxyphenyl)(naphthalen-1-yl)methanone O-1-(dimethylamino)propan-2-yl oxime oxalate]				
130	COc1ccc(/C(=N/OCCN(C(C)C)C(C)C)c2cccc3ccccc23)cc1 (as salt: oxalate) [Compound 6e, (4-methoxyphenyl)(naphthalen-1-yl)methanone O-2-(diisopropylamino)ethyl oxime oxalate]				
